Consider 14 compounds from patent US10590082B2, “N-(5-((aryl or heteroaryl)methyloxy)pentyl)-substituted iminosugars as inhibitors of glucosylceramide synthase” (Academisch Medisch Centrum, priority 2014, dated 2020).

Assay [1] deals with intestinal glycosidases. The settings on record: background statement; cited from earlier work.
Assay [2] addresses T1, glucosylceramide synthase (GCS) (Mus musculus, UniProt O88693).
T1 construct: IC50 values for GCS activity were measured using living cells; endogenous in cells
T1 sequence (O88693 1-394): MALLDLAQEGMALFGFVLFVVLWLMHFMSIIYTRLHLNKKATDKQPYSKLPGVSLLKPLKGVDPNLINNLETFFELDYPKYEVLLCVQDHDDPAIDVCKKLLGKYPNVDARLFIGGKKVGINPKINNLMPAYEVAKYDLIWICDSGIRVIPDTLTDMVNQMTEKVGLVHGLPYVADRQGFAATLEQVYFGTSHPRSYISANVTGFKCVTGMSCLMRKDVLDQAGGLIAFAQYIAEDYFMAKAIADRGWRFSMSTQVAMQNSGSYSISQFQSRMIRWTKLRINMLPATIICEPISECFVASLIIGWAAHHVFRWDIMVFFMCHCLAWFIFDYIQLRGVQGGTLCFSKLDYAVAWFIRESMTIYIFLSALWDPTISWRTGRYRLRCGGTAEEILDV
The assay is described as follows: GCS activity in living macrophage  cells (C6-NBD lipid, TLC readout). The settings on record: read-out: GCS [nM] (IC50). Format: cell-based.

The target of assay [3] is T2, GBA2 (Homo sapiens, UniProt Q9HCG7).
T2 construct: measured using a membrane fraction obtained from Gaucher spleen; from tissue; host or cells: membrane fraction of Gaucher spleen, pre-treated with conduritol B-epoxide
T2 sequence (Q9HCG7 1-927): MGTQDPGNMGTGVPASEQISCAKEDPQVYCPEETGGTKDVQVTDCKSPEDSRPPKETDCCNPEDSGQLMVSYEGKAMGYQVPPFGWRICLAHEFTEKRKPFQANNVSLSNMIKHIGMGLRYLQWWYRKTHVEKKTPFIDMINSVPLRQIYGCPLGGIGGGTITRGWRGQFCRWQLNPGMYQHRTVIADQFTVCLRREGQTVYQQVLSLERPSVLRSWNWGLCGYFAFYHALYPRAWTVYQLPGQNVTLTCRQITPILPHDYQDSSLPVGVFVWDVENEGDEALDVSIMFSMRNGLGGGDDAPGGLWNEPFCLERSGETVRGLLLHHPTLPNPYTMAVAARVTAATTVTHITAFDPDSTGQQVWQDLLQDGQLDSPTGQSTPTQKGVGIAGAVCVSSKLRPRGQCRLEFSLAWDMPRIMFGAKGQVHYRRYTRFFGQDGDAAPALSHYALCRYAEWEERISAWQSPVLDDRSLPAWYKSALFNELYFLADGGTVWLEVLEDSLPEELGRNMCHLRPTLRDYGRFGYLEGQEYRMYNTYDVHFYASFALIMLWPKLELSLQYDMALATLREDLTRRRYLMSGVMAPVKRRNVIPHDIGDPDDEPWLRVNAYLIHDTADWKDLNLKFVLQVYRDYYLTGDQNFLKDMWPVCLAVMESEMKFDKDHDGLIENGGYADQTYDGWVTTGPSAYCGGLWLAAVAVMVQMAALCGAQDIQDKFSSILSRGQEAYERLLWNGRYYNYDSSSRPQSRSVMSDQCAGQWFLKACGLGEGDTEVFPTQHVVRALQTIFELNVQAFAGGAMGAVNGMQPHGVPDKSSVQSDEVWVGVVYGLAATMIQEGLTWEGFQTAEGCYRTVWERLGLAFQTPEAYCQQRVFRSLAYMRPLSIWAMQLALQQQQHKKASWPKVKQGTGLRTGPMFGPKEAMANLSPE
The experiment in a line: GBA2 activity, membrane fraction from Gaucher spleen, 4-MU-β-glucoside substrate.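 Note: Read-out is fluorimetric quantification of released 4-MU.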 The format is biochemical.

Assay [4] deals with T3, GBA1 (Homo sapiens, UniProt P04062, R534H).
T3 construct: purchased Sanofi (Cerezyme)
T3 sequence (P04062 40-536 R534H): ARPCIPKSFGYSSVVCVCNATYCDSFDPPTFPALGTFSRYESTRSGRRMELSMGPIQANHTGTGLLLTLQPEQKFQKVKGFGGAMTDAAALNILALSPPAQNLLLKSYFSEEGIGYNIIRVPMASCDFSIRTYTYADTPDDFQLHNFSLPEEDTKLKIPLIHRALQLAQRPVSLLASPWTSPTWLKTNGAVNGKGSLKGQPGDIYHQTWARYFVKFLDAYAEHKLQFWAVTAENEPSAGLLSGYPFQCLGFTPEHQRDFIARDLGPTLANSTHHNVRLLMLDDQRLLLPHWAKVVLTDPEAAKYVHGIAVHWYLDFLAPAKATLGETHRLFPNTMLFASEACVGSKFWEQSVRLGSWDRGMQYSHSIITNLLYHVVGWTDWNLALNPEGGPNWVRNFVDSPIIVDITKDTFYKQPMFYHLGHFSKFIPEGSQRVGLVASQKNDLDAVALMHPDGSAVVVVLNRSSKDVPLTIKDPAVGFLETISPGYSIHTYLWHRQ
The experiment in a line: GBA1 activity, recombinant human enzyme (Cerezyme), 4-MU-β-glucoside substrate.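 Note: enzyme activity read out as fluorescence of the 4-MU released from the substrate, measured on a fluorimeter.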 The format is biochemical.

Where [5] appears, read: D-gluco configuration series, Example 3.
Setting [6] is: L-ido configuration series, Example 4.

Read-outs that look alike come from different tables or passages of the source.

For the compound `OC[C@H]1[C@@H](O)[C@H](O)[C@@H](O)CN1CCCCCOCC12CC3CC(CC(C3)C1)C2` [Compound 2, (adamantanemethyloxypentyl)-L-ido-deoxynojirimycin], in assay [1], the “inhibitory activity against the intestinal glycosidases” value is on record as “little to no inhibitory activity”.
What is called IC50 is the concentration at which inhibition is half-maximal. Turning to `COc1ccc(-c2ccc(COCCCCCN3C[C@H](O)[C@@H](O)[C@H](O)[C@H]3CO)cc2)cc1` [Compound 33], the IC50 is 25 nM in assay [2], 10 nM in assay [3] (setting [5]) and 2500 nM in assay [4].
In the case of `Cc1ccccc1-c1ccc(COCCCCCN2C[C@H](O)[C@@H](O)[C@H](O)[C@H]2CO)cc1` [Compound 34], the IC50 in assay [2] (setting [5]) stood at 25 nM; in assay [3] (setting [5]), 0.5 nM; in assay [4], 70 nM.
As to `Cc1cccc(-c2ccc(COCCCCCN3C[C@H](O)[C@@H](O)[C@H](O)[C@H]3CO)cc2)c1` [Compound 35], the values for the IC50 in assay [2], in assay [3] (setting [5]) and in assay [4] were 100 nM, 2 nM and 250 nM, respectively.
As to `Cc1ccc(-c2ccc(COCCCCCN3C[C@H](O)[C@@H](O)[C@H](O)[C@H]3CO)cc2)cc1` [Compound 36], the values for the IC50 in assay [2], in assay [3] (setting [5]) and in assay [4] were 100 nM, 3 nM and 250 nM, respectively.
For `C[C@H](OCCCCCN1C[C@H](O)[C@@H](O)[C@H](O)[C@@H]1CO)c1ccc(-c2ccccc2)cc1` [Compound 38], the IC50 in assay [2] (setting [6]) was 30 nM; in assay [3] (setting [6]), 2 nM; in assay [4], 10000 nM.
For `C[C@@H](OCCCCCN1C[C@H](O)[C@@H](O)[C@H](O)[C@@H]1CO)c1ccc(-c2ccccc2)cc1` [Compound 39], in that order: 40 nM, 1 nM and 10000 nM.
As to `OC[C@H]1[C@@H](O)[C@H](O)[C@@H](O)CN1CCCCCOCc1ccccc1-c1ccccc1` [Compound 40], the IC50 in assay [2] was determined as 25 nM; in assay [3] (setting [6]) it was 3 nM; in assay [4], 15000 nM.
In the same order, the values of `OC[C@H]1[C@@H](O)[C@H](O)[C@@H](O)CN1CCCCCOCc1cccc(-c2ccccc2)c1` [Compound 41] are 75 nM, 2 nM and 20000 nM.
For `OC[C@H]1[C@@H](O)[C@H](O)[C@@H](O)CN1CCCC(F)(F)COCc1ccc(-c2ccccc2)cc1` [Compound 43], in that order: 15 nM, 2 nM and 12500 nM.
In the case of `OC[C@H]1[C@@H](O)[C@H](O)[C@@H](O)CN1CCCCCOCc1ccc(-c2ccccc2)cc1C(F)(F)F` [Compound 44], the values for the IC50 in assay [2], in assay [3] (setting [6]) and in assay [4] were 3 nM, 0.1 nM and 5000 nM, respectively.
For `OC[C@H]1[C@@H](O)[C@H](O)[C@@H](O)CN1CCCCCOCc1ccc(-c2ccccc2)c(C(F)(F)F)c1` [Compound 45], in that order: 3 nM, 0.1 nM and 6000 nM.
For the compound `OC[C@H]1[C@@H](O)[C@H](O)[C@@H](O)CN1CCCCCOCc1ccc(-c2ccccc2)cc1F` [Compound 46], the IC50 is 5 nM in assay [2], 0.4 nM in assay [3] (setting [6]) and 8000 nM in assay [4].
In the same order, the values of `OC[C@H]1[C@@H](O)[C@H](O)[C@@H](O)CN1CCCCCOCc1ccc(-c2ccccc2)c(F)c1` [Compound 47] are 2.5 nM, 0.6 nM and 6000 nM.
